Data as given in US10577363B2, “Substituted piperidine compounds” (EPIZYME, INC., priority 2014, dated 2020).

Key:
[1] = molecular target: T1, SMYD3 (Homo sapiens (Human), UniProt Q9H7B4); assay: SMYD3 biochemical assay (SPA, 3H-SAM methylation of MEKK2 protein substrate); conditions: read-out: SMYD3 Biochem IC50*
How it was run: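 Tritium incorporation into GST-MEKK2 is counted by scintillation proximity after citric acid bead capture. Native human SMYD3 is preincubated with test compound for 30 min at room temperature at pH 8.0 (Tris-Cl, TCEP, BSG, Tween 20) before 3H-SAM and substrate are added; cold SAM at 100 uM final stops turnover.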

[2] = molecular target: T1, SMYD3; assay: SMYD3 cell assay (Trimethyl-MEKK2 In-Cell Western in 293T/17 cells); type: cell-based; conditions: read-out: SMYD3 Cell IC50*
How it was run: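 In-Cell Western ratio of trimethyl-Lys260 MEKK2 to anti-flag signal; percent inhibition from DMSO and maximum-inhibition controls, IC50 by non-linear regression, triplicates.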

T1 sequence (Q9H7B4 whole entry): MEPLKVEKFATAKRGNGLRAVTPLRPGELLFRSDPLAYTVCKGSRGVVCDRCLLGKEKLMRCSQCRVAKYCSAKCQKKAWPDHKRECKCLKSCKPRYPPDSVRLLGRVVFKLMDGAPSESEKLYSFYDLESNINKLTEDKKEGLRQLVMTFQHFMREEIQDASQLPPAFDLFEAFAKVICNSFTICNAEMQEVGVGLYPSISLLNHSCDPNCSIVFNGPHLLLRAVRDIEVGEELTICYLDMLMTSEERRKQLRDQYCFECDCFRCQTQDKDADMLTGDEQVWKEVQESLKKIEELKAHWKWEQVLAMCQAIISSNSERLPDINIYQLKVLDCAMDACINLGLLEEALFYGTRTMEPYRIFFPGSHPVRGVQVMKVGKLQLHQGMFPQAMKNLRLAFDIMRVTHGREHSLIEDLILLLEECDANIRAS

| SMILES | IC50 [1] | IC50 [2] |
| --- | --- | --- |
| CN1CCC[C@@H](S(=O)(=O)N2[C@@H]3CC[C@H]2C[C@@H](NC(=O)c2cc(C4CC4)on2)C3)C1 [compound 926, 5-cyclopropyl-N-((1R,3R,5S)-8-(((R)-1-methylpiperidin-3-yl)sulfonyl)-8-azabicyclo[3.2.1]octan-3-yl)isoxazole-3-carboxamide] | 0.03 µM | 0.209 µM |
| C[C@H](NC1CCN(S(=O)(=O)N2[C@@H]3CC[C@H]2C[C@@H](NC(=O)c2cc(C4CC4)on2)C3)CC1)c1ccccc1 [compound 927, 5-cyclopropyl-N-((1R,3S,5S)-8-((4-(((S)-1-phenylethyl)amino)piperidin-1-yl)sulfonyl)-8-azabicyclo[3.2.1]octan-3-yl)isoxazole-3-carboxamide] | 0.0309 µM | 0.403 µM |
| CC(C)NC1CCN(S(=O)(=O)N2[C@@H]3CC[C@H]2C[C@@H](NC(=O)c2cc(C4CC4)on2)C3)CC1 [compound 928, 5-cyclopropyl-N-((1R,3r,5S)-8-((4-(isopropylamino)piperidin-1-yl)sulfonyl)-8-azabicyclo[3.2.1]octan-3-yl)isoxazole-3-carboxamide] | 0.0362 µM | 0.512 µM |
| NCc1ccc(S(=O)(=O)N2[C@@H]3CC[C@H]2C[C@@H](NC(=O)c2cc(C4CC4)on2)C3)cc1 [compound 929, N-((1R,3r,5S)-8-((4-(aminomethyl)phenyl)sulfonyl)-8-azabicyclo[3.2.1]octan-3-yl)-5-cyclopropylisoxazole-3-carboxamide] | 0.0368 µM | ≥ 10 µM |
| O=C(N[C@H]1C[C@H]2CC[C@@H](C1)N2S(=O)(=O)C[C@@H]1CCCN1)c1cc(C2CC2)on1 [compound 930, 5-cyclopropyl-N-((1R,3S,5S)-8-((((S)-pyrrolidin-2-yl)methyl)sulfonyl)-8-azabicyclo[3.2.1]octan-3-yl)isoxazole-3-carboxamide] | 0.0371 µM | 0.351 µM |
| C[C@H](N)c1ccc(S(=O)(=O)N2[C@@H]3CC[C@H]2C[C@@H](NC(=O)c2cc(C4CC4)on2)C3)cc1 [compound 931, N-((1R,3S,5S)-8-((4-((S)-1-aminoethyl)phenyl)sulfonyl)-8-azabicyclo[3.2.1]octan-3-yl)-5-cyclopropylisoxazole-3-carboxamide] | 0.0372 µM | 0.526 µM |
| C[C@H]1C[C@@H](NC(=O)c2cc(C3CC3)on2)CCN1S(=O)(=O)N1C[C@H]2CC[C@@H](C1)[C@@H]2N [compound 932, N-((2S,4S)-1-(((1R,5S,8R)-8-amino-3-azabicyclo[3.2.1]octan-3-yl)sulfonyl)-2-methylpiperidin-4-yl)-5-cyclopropylisoxazole-3-carboxamide] | 0.0387 µM | 0.351 µM |
| CN1CC2CC(C1)N2S(=O)(=O)N1[C@@H]2CC[C@H]1C[C@@H](NC(=O)c1cc(C3CC3)on1)C2 [compound 933, 5-cyclopropyl-N-((1R,3r,5S)-8-((3-methyl-3,6-diazabicyclo[3.1.1]heptan-6-yl)sulfonyl)-8-azabicyclo[3.2.1]octan-3-yl)isoxazole-3-carboxamide] | 0.0424 µM | 0.0919 µM |
| C[C@@H](N)c1ccc(S(=O)(=O)N2[C@@H]3CC[C@H]2C[C@@H](NC(=O)c2cc(C4CC4)on2)C3)cc1 [compound 934, N-((1R,3R,5S)-8-((4-((R)-1-aminoethyl)phenyl)sulfonyl)-8-azabicyclo[3.2.1]octan-3-yl)-5-cyclopropylisoxazole-3-carboxamide] | 0.0424 µM | 0.494 µM |
| C[C@H]1C[C@@H](NC(=O)c2cc(C3CC3)on2)CCN1S(=O)(=O)N1CCC(N(C)CCN2CCOCC2)CC1 [compound 935, 5-cyclopropyl-N-((2S,4S)-2-methyl-1-((4-(methyl(2-morpholinoethyl)amino)piperidin-1-yl)sulfonyl)piperidin-4-yl)isoxazole-3-carboxamide] | 0.043 µM | 0.414 µM |
| CN(CCCN1CCOCC1)C1CCN(S(=O)(=O)N2[C@@H]3CC[C@H]2C[C@@H](NC(=O)c2cc(C4CC4)on2)C3)CC1 [compound 936, 5-cyclopropyl-N-((1R,3r,5S)-8-((4-(methyl(3-morpholinopropyl)amino)piperidin-1-yl)sulfonyl)-8-azabicyclo[3.2.1]octan-3-yl)isoxazole-3-carboxamide] | 0.0438 µM | 0.623 µM |
| CC[C@@H]1CNCCN1S(=O)(=O)N1CC[C@H](NC(=O)c2cc(C3CC3)on2)C[C@@H]1C [compound 937, 5-cyclopropyl-N-((2S,4S)-1-(((R)-2-ethylpiperazin-1-yl)sulfonyl)-2-methylpiperidin-4-yl)isoxazole-3-carboxamide] | 0.0439 µM | 0.484 µM |
| N#Cc1ccc(CNC2CCN(S(=O)(=O)N3[C@@H]4CC[C@H]3C[C@@H](NC(=O)c3cc(C5CC5)on3)C4)CC2)cc1 [compound 938, N-((1R,3r,5S)-8-((4-((4-cyanobenzyl)amino)piperidin-1-yl)sulfonyl)-8-azabicyclo[3.2.1]octan-3-yl)-5-cyclopropylisoxazole-3-carboxamide] | 0.0441 µM | 0.508 µM |
| O=C(N[C@H]1C[C@H]2CC[C@@H](C1)N2S(=O)(=O)N1CCNCC1c1ccccc1)c1cc(C2CC2)on1 (stereo partly drawn) [compound 939, 5-cyclopropyl-N-((1R,3r,5S)-8-((2-phenylpiperazin-1-yl)sulfonyl)-8-azabicyclo[3.2.1]octan-3-yl)isoxazole-3-carboxamide] | 0.0447 µM | 0.361 µM |
| CC1CN(S(=O)(=O)N2[C@@H]3CC[C@H]2C[C@@H](NC(=O)c2cc(C4CC4)on2)C3)C(C)CN1C (stereo partly drawn) [compound 941, 5-cyclopropyl-N-((1R,3r,5S)-8-((2,4,5-trimethylpiperazin-1-yl)sulfonyl)-8-azabicyclo[3.2.1]octan-3-yl)isoxazole-3-carboxamide] | 0.0479 µM | 0.341 µM |
| O=C(N[C@H]1C[C@H]2CC[C@@H](C1)N2S(=O)(=O)NC1CCN[C@H](Cc2ccccc2)C1)c1cc(C2CC2)on1 (stereo partly drawn) [compound 942, N-((1R,3R,5S)-8-(N-((2R)-2-benzylpiperidin-4-yl)sulfamoyl)-8-azabicyclo[3.2.1]octan-3-yl)-5-cyclopropylisoxazole-3-carboxamide] | 0.0481 µM | 0.659 µM |
| C[C@H](NC1CCN(S(=O)(=O)N2[C@@H]3CC[C@H]2C[C@@H](NC(=O)c2cc(C4CC4)on2)C3)CC1)c1ccc(F)cc1 [compound 943, 5-cyclopropyl-N-((1R,3S,5S)-8-((4-(((S)-1-(4-fluorophenyl)ethyl)amino)piperidin-1-yl)sulfonyl)-8-azabicyclo[3.2.1]octan-3-yl)isoxazole-3-carboxamide] | 0.0481 µM | 0.602 µM |
| C[C@@H](NC1CCN(S(=O)(=O)N2[C@@H]3CC[C@H]2C[C@@H](NC(=O)c2cc(C4CC4)on2)C3)CC1)c1ccc(F)cc1 [compound 944, 5-cyclopropyl-N-((1R,3R,5S)-8-((4-(((R)-1-(4-fluorophenyl)ethyl)amino)piperidin-1-yl)sulfonyl)-8-azabicyclo[3.2.1]octan-3-yl)isoxazole-3-carboxamide] | 0.0489 µM | 0.683 µM |
| O=C(N[C@H]1C[C@H]2CC[C@@H](C1)N2S(=O)(=O)N(Cc1ccccc1)C1CCNCC1)c1cc(C2CC2)on1 [compound 945, N-((1R,3r,5S)-8-(N-benzyl-N-(piperidin-4-yl)sulfamoyl)-8-azabicyclo[3.2.1]octan-3-yl)-5-cyclopropylisoxazole-3-carboxamide] | 0.0506 µM | 0.223 µM |
| O=C(N[C@H]1C[C@H]2CC[C@@H](C1)N2S(=O)(=O)c1ccc(CNCCO)cc1)c1cc(C2CC2)on1 [compound 946, 5-cyclopropyl-N-((1R,3r,5S)-8-((4-(((2-hydroxyethyl)amino)methyl)phenyl)sulfonyl)-8-azabicyclo[3.2.1]octan-3-yl)isoxazole-3-carboxamide] | 0.051 µM | 0.332 µM |
| O=C(N[C@H]1C[C@H]2CC[C@@H](C1)N2S(=O)(=O)N1CCC(NCCN2CCOCC2)CC1)c1cc(C2CC2)on1 [compound 947, 5-cyclopropyl-N-((1R,3r,5S)-8-((4-((2-morpholinoethyl)amino)piperidin-1-yl)sulfonyl)-8-azabicyclo[3.2.1]octan-3-yl)isoxazole-3-carboxamide] | 0.0523 µM | 0.338 µM |
| O=C(N[C@H]1C[C@H]2CC[C@@H](C1)N2S(=O)(=O)NC1CCN(Cc2ccccc2)CC1)c1cc(C2CC2)on1 [compound 948, N-((1R,3r,5S)-8-(N-(1-benzylpiperidin-4-yl)sulfamoyl)-8-azabicyclo[3.2.1]octan-3-yl)-5-cyclopropylisoxazole-3-carboxamide] | 0.0524 µM | 0.411 µM |
| O=C(N[C@H]1CCN(S(=O)(=O)NC2CCNCC2)[C@@H](Cc2ccccc2)C1)c1cc(C2CC2)on1 [compound 949, N-((2S,4S)-2-benzyl-1-(N-(piperidin-4-yl)sulfamoyl)piperidin-4-yl)-5-cyclopropylisoxazole-3-carboxamide] | 0.0527 µM | 1.51 µM |
| CC1CN(C)CCN1S(=O)(=O)N1[C@@H]2CC[C@H]1C[C@@H](NC(=O)c1cc(C3CC3)on1)C2 (stereo partly drawn) [compound 950, 5-cyclopropyl-N-((1R,3r,5S)-8-((2,4-dimethylpiperazin-1-yl)sulfonyl)-8-azabicyclo[3.2.1]octan-3-yl)isoxazole-3-carboxamide] | 0.0529 µM | 0.39 µM |
| CN(C1CCCNC1)S(=O)(=O)N1[C@@H]2CC[C@H]1C[C@@H](NC(=O)c1cc(C3CC3)on1)C2 (stereo partly drawn) [compound 951, 5-cyclopropyl-N-((1R,3r,5S)-8-(N-methyl-N-(piperidin-3-yl)sulfamoyl)-8-azabicyclo[3.2.1]octan-3-yl)isoxazole-3-carboxamide] | 0.0541 µM | 0.395 µM |
